Experimental data: patent US11401555B2, “Genetic polymorphisms associated with stroke, methods of detection and uses thereof” (CELERA CORPORATION, priority 2008, dated 2022)

Experiments:
[1] = Stroke statin response (SSR) in the PROSPER pravastatin trial: pravastatin-treated versus placebo-treated, by SNP genotype; type: in vivo, human
[2] = Stroke statin response (SSR) in the CARE pravastatin trial: pravastatin-treated versus placebo-treated, by SNP genotype; type: in vivo, human; conditions: CARE; for HR: pravastatin vs placebo; for HR (hazard ratio for stroke, pravastatin vs placebo): rs10757274 (hCV26505812), placebo = ref; for EVENTS (number of stroke events): rs10757274, pravastatin arm; for EVENTS: stroke events in pravastatin arm

In the case of CC[C@H](C)C(=O)O[C@H]1C[C@H](O)C=C2C=C[C@H](C)[C@H](CC[C@@H](O)C[C@@H](O)CC(=O)O)[C@H]21 [pravastatin], the “HR_RESP (hazard ratio, pravastatin-treated versus placebo-treated)” value ([1]; hCV2091644 rs1010 VAMP8, GENO_RESP CC + CT, MODE DOM, STRATA no hist) is reported as 0.786, the “HR_RESP (hazard ratio, pravastatin-treated versus placebo-treated)” value ([1]; hCV2169762 rs1804689 HPS1, GENO_RESP GG + GT, MODE REC, STRATA hist) is reported as 1.028 and the “HR_RESP (hazard ratio, pravastatin-treated versus placebo-treated)” value ([1]; hCV2169762 rs1804689 HPS1, GENO_RESP TT + GT, MODE DOM, STRATA no hist) is reported as 1.266. For the same compound, the EVENTS_RESP ([1]; hCV2169762 rs1804689 HPS1, GENO_RESP TT, MODE GEN, STRATA hist) was 5, the “HR_RESP (hazard ratio, pravastatin-treated versus placebo-treated)” value ([1]; hCV29539757 rs10110659 KCNQ3, GENO_RESP CC + AC, MODE REC, STRATA hist) was 1.009 and the HR ([2]; hCV945276 rs89962 KRT4, DOM, genotype TG + TT, 95% CL 0.48-1.027, p 0.0683) was 0.7. It also gave an HR ([2]; hCV945276 rs89962 KRT4, GEN, genotype GG, 95% CL 0.349-1.196, p 0.1641) of 0.65, an HR ([2]; hCV945276 rs89962 KRT4, GEN, genotype TG, 95% CL 0.423-0.979, p 0.0397) of 0.64 and an HR ([2]; hCV945276 rs89962 KRT4, GEN, genotype TT, 95% CL 0.392-2.375, p 0.9381) of 0.96. For the same compound, the HR ([2]; hCV945276 rs89962 KRT4, REC, genotype TG + GG, 95% CL 0.458-0.916, p 0.0141) was 0.65, the HR ([2]; hCV1022614 rs220479 ITGAE, DOM, genotype CT + CC, 95% CL 0.541-1.024, p 0.0696) was 0.74 and the HR ([2]; hCV1022614 rs220479 ITGAE, GEN, genotype CC, 95% CL 0.609-1.295, p 0.5366) was 0.89. It also gave an HR ([2]; hCV1022614 rs220479 ITGAE, GEN, genotype CT, 95% CL 0.257-0.887, p 0.0192) of 0.48, an HR ([2]; hCV1022614 rs220479 ITGAE, GEN, genotype TT, 95% CL 0.203-4.047, p 0.8969) of 0.91 and an HR ([2]; hCV1022614 rs220479 ITGAE, REC, genotype CT + TT, 95% CL 0.294-0.921, p 0.0248) of 0.52. For the same compound, the HR ([2]; hCV2091644 rs1010 VAMP8, DOM, genotype CT + CC, 95% CL 0.507-1.126, p 0.1678) was 0.76, the HR ([2]; hCV2091644 rs1010 VAMP8, GEN, genotype CC, 95% CL 0.51-2.73, p 0.6997) was 1.18 and the HR ([2]; hCV2091644 rs1010 VAMP8, GEN, genotype CT, 95% CL 0.418-1.045, p 0.0763) was 0.66. The HR ([2]; hCV2091644 rs1010 VAMP8, GEN, genotype TT, 95% CL 0.43-1.186, p 0.1928) was 0.71, the HR ([2]; hCV2091644 rs1010 VAMP8, REC, genotype CT + TT, 95% CL 0.487-0.961, p 0.0284) was 0.68 and the HR ([2]; hCV2169762 rs1804689 HPS1, DOM, genotype TG + TT, 95% CL 0.612-1.461, p 0.8004) was 0.95. For the same compound, the HR ([2]; hCV2169762 rs1804689 HPS1, GEN, genotype GG, 95% CL 0.372-0.924, p 0.0214) was 0.59, the HR ([2]; hCV2169762 rs1804689 HPS1, GEN, genotype TG, 95% CL 0.583-1.468, p 0.7398) was 0.92 and the HR ([2]; hCV2169762 rs1804689 HPS1, GEN, genotype TT, 95% CL 0.266-3.694, p 0.9903) was 0.99. It also gave an HR ([2]; hCV2169762 rs1804689 HPS1, REC, genotype TG + GG, 95% CL 0.529-1.006, p 0.0547) of 0.73, an HR ([2]; hCV2192261 rs3213646 EXOD1, DOM, genotype CT + CC, 95% CL 0.506-1.048, p 0.0882) of 0.73 and an HR ([2]; hCV2192261 rs3213646 EXOD1, GEN, genotype CC, 95% CL 0.613-1.799, p 0.8592) of 1.05. For the same compound, the HR ([2]; hCV2192261 rs3213646 EXOD1, GEN, genotype CT, 95% CL 0.328-0.898, p 0.0175) was 0.54, the HR ([2]; hCV2192261 rs3213646 EXOD1, GEN, genotype TT, 95% CL 0.316-1.278, p 0.2036) was 0.64 and the HR ([2]; hCV2192261 rs3213646 EXOD1, REC, genotype CT + TT, 95% CL 0.379-0.857, p 0.007) was 0.57. It also gave an HR ([2]; hCV7425232 rs3900940 MYH15, DOM, genotype CT + CC, 95% CL 0.468-1.102, p 0.1293) of 0.72, an HR ([2]; hCV7425232 rs3900940 MYH15, GEN, genotype CC, 95% CL 0.461-2.296, p 0.9448) of 1.03 and an HR ([2]; hCV7425232 rs3900940 MYH15, GEN, genotype CT, 95% CL 0.365-1.022, p 0.0604) of 0.61. For the same compound, the HR ([2]; hCV7425232 rs3900940 MYH15, GEN, genotype TT, 95% CL 0.442-1.146, p 0.1618) was 0.71, the HR ([2]; hCV7425232 rs3900940 MYH15, REC, genotype CT + TT, 95% CL 0.467-0.939, p 0.0207) was 0.66 and the HR ([2]; hCV11450563 rs2038366, DOM, genotype GT + GG, 95% CL 0.567-1.148, p 0.2334) was 0.81. It also gave an HR ([2]; hCV11450563 rs2038366, GEN, genotype GG, 95% CL 0.669-1.975, p 0.6132) of 1.15, an HR ([2]; hCV11450563 rs2038366, GEN, genotype GT, 95% CL 0.381-0.986, p 0.0436) of 0.61 and an HR ([2]; hCV11450563 rs2038366, GEN, genotype TT, 95% CL 0.472-2.724, p 0.7789) of 1.13. For the same compound, the HR ([2]; hCV11450563 rs2038366, REC, genotype GT + TT, 95% CL 0.463-1.064, p 0.0954) was 0.7, the “HR (hazard ratio for stroke, pravastatin vs placebo)” value ([2]; adjusted (age, male, current smoking, hypertension, diabetes, BMI, baseline LDL, HDL), mode DOM, genotype GA + GG) was 0.73 and the “HR (hazard ratio for stroke, pravastatin vs placebo)” value ([2]; adjusted (age, male, current smoking, hypertension, diabetes, BMI, baseline LDL, HDL), mode GEN, genotype GA) was 0.61. For the same compound, the “HR (hazard ratio for stroke, pravastatin vs placebo)” value ([2]; adjusted (age, male, current smoking, hypertension, diabetes, BMI, baseline LDL, HDL), mode GEN, genotype GG) was 1, the “HR (hazard ratio for stroke, pravastatin vs placebo)” value ([2]; adjusted (age, male, current smoking, hypertension, diabetes, BMI, baseline LDL, HDL), mode REC, genotype GA + AA) was 0.69 and the “HR (hazard ratio for stroke, pravastatin vs placebo)” value ([2]; unadjusted, mode DOM, genotype AG + AA) was 0.65. The “HR (hazard ratio for stroke, pravastatin vs placebo)” value ([2]; unadjusted, mode GEN, genotype AG) was 0.58, the “HR (hazard ratio for stroke, pravastatin vs placebo)” value ([2]; unadjusted, mode GEN, genotype GG) was 0.91 and the “HR (hazard ratio for stroke, pravastatin vs placebo)” value ([2]; unadjusted, mode REC, genotype AG + GG) was 0.69. The “EVENTS (number of stroke events)” value ([2]; adjusted analysis, mode DOM, genotype GA + GG, total 1131) was 54, the “EVENTS (number of stroke events)” value ([2]; adjusted analysis, mode GEN, genotype AA, total 328) was 18 and the “EVENTS (number of stroke events)” value ([2]; adjusted analysis, mode GEN, genotype GA, total 690) was 29. For the same compound, the “EVENTS (number of stroke events)” value ([2]; adjusted analysis, mode GEN, genotype GG, total 441) was 25, the “EVENTS (number of stroke events)” value ([2]; unadjusted, mode DOM, genotype AG + AA, total 981) was 44 and the “EVENTS (number of stroke events)” value ([2]; unadjusted, mode GEN, genotype AA, total 315) was 17. The “EVENTS (number of stroke events)” value ([2]; unadjusted, mode GEN, genotype AG, total 666) was 27, the “EVENTS (number of stroke events)” value ([2]; unadjusted, mode GEN, genotype GG, total 414) was 23 and the “EVENTS (number of stroke events)” value ([2]; unadjusted, mode REC, genotype AG + GG, total 1080) was 50. For the same compound, the EVENTS ([2]; rs1010 VAMP8, DOM, genotype CT + CC, TOTAL 957) was 43, the EVENTS ([2]; rs1010 VAMP8, GEN, genotype CC, TOTAL 271) was 12 and the EVENTS ([2]; rs1010 VAMP8, GEN, genotype CT, TOTAL 686) was 31. The EVENTS ([2]; rs1010 VAMP8, GEN, genotype TT, TOTAL 455) was 26, the EVENTS ([2]; rs1010 VAMP8, REC, genotype CT + TT, TOTAL 1141) was 57 and the EVENTS ([2]; rs89962 KRT4, DOM, genotype TG + TT, TOTAL 912) was 46. The EVENTS ([2]; rs89962 KRT4, GEN, genotype GG, TOTAL 443) was 17, the EVENTS ([2]; rs89962 KRT4, GEN, genotype TG, TOTAL 674) was 37 and the EVENTS ([2]; rs89962 KRT4, GEN, genotype TT, TOTAL 238) was 9. For the same compound, the EVENTS ([2]; rs89962 KRT4, REC, genotype TG + GG, TOTAL 1117) was 54, the EVENTS ([2]; rs220479 ITGAE, DOM, genotype CT + CC, TOTAL 1381) was 67 and the EVENTS ([2]; rs220479 ITGAE, GEN, genotype CC, TOTAL 973) was 52. The EVENTS ([2]; rs220479 ITGAE, GEN, genotype CT, TOTAL 408) was 15, the EVENTS ([2]; rs220479 ITGAE, GEN, genotype TT, TOTAL 46) was 3 and the EVENTS ([2]; rs220479 ITGAE, REC, genotype CT + TT, TOTAL 454) was 18. For the same compound, the EVENTS ([2]; rs1804689 HPS1, DOM, genotype TG + TT, TOTAL 759) was 40, the EVENTS ([2]; rs1804689 HPS1, GEN, genotype GG, TOTAL 668) was 30 and the EVENTS ([2]; rs1804689 HPS1, GEN, genotype TG, TOTAL 652) was 36. It also gave an EVENTS ([2]; rs1804689 HPS1, GEN, genotype TT, TOTAL 107) of 4, an EVENTS ([2]; rs1804689 HPS1, REC, genotype TG + GG, TOTAL 1320) of 66 and an EVENTS ([2]; rs2038366, DOM, genotype GT + GG, TOTAL 1177) of 57.
